Source: the supplement of paper PMC10307832

Compound: CCn1c(-c2nonc2N)nc2c(C#CC(C)(C)O)ncc(OC[C@H]3CCCNC3)c21 + CC(=O)c1c(C)c2cnc(Nc3ccc(N4CCNCC4)cn3)nc2n(C2CCCC2)c1=O [Palbociclib] (partner 0.5 µM)
Assay: relative viability (nuclei count vs DMSO), 5 days (fraction); higher = more cells survive
Conditions: first compound 0.1 µM
Procedure, shortened: (§1)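 Relative viability divides the nuclei count in treated wells by that in vehicle wells. Lung cancer cell lines were seeded in 1536-well plates, dosed by pin tool the next day, and fixed and stained after 5 days in one step with final 0.05% Triton X-100, 1% formaldehyde and 1 ug/ml Hoechst. Dosing was a single drug or a fixed anchor-drug dose plus five library-drug doses (not always all listed) in √10 steps, and values are medians of duplicate plates imaged at 4×.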

Point of comparison: NCI-H1755, relative viability 0.463. Against it:
- NCI-H2347 — higher, 0.492
- SK-LU-1 — lower, 0.323
- NCI-H1395 — higher, 0.604
- 201T — lower, 0.33
- NCI-H1915 — higher, 0.531
- HCC-827 — lower, 0.412
- LXF-289 — higher, 0.608
- NCI-H23 — higher, 0.52
- NCI-H647 — lower, 0.416
- CAL-12T — higher, 0.468
- NCI-H1651 — higher, 0.505
- EPLC-272H — lower, 0.297
- NCI-H2228 — higher, 0.821
- NCI-H1792 — higher, 0.601
- NCI-H1355 — lower, 0.406
- NCI-H3122 — lower, 0.176
- NCI-H1437 — lower, 0.338
- NCI-H2023 — lower, 0.331
- HCC-15 — higher, 0.716
- PC-14 — higher, 0.542
- EKVX — lower, 0.378

Same assay, conditions: first compound 0.3162 µM

Point of comparison: LOU-NH91, relative viability 0.535. Against it:
- NCI-H522 — higher, 0.781
- NCI-H727 — higher, 0.647
- NCI-H1650 — lower, 0.153
- NCI-H1993 — higher, 0.659
- SW 1573 — lower, 0.241
- NCI-H838 — lower, 0.172
- LCLC-103H — lower, 0.48
- NCI-H520 — lower, 0.153
- NCI-H2126 — lower, 0.335
- EMC-BAC-2 — lower, 0.5
- NCI-H2085 — lower, 0.455
- HCC-366 — lower, 0.359
- NCI-H1666 — higher, 0.626
- LK-2 — higher, 0.625
- NCI-H2087 — lower, 0.248
- NCI-H2342 — higher, 0.679
- SK-MES-1 — lower, 0.318
- H3255 — lower, 0.296
- COR-L23 — lower, 0.231
- COR-L 105 — lower, 0.39
- ChaGo-K-1 — higher, 0.893
- NCI-H2170 — lower, 0.372
- NCI-H2405 — lower, 0.481
- HOP-62 — lower, 0.383
- HCC-44 — higher, 0.813
- SW 900 — higher, 0.649
- LU99A — lower, 0.406
- BEN — lower, 0.463
- HARA — lower, 0.268
- NCI-H1648 — lower, 0.262
- HCC-78 — lower, 0.465
- NCI-H322M — lower, 0.463
- LCLC-97TM1 — lower, 0.205
- NCI-H2009 — lower, 0.186
- A-427 — lower, 0.515
- NCI-H441 — lower, 0.193
- NCI-H661 — lower, 0.389
- NCI-H1734 — lower, 0.303
- NCI-H460 — lower, 0.127
- NCI-H2347 — lower, 0.422
- SK-LU-1 — lower, 0.414
- NCI-H1395 — lower, 0.495
- 201T — lower, 0.352
- NCI-H1915 — lower, 0.487
- HCC-827 — lower, 0.431
- LXF-289 — higher, 0.581
- NCI-H23 — higher, 0.575
- NCI-H647 — lower, 0.309
- CAL-12T — lower, 0.462
- NCI-H1651 — lower, 0.49
- EPLC-272H — lower, 0.281
- NCI-H2228 — higher, 0.574
- NCI-H1792 — higher, 0.586
- NCI-H1355 — lower, 0.382
- NCI-H3122 — lower, 0.175
- NCI-H1437 — lower, 0.281
- NCI-H1755 — lower, 0.437
- NCI-H2023 — lower, 0.205
- HCC-15 — higher, 0.614
- NCI-H1793 — lower, 0.295
- PC-14 — lower, 0.476
- EKVX — lower, 0.374

Same assay, conditions: first compound 1 µM

Point of comparison: NCI-H1734, relative viability 0.33. Against it:
- NCI-H522 — higher, 0.916
- NCI-H727 — higher, 0.734
- NCI-H1650 — lower, 0.276
- NCI-H1993 — higher, 0.542
- SW 1573 — lower, 0.215
- NCI-H838 — lower, 0.227
- LCLC-103H — higher, 0.352
- NCI-H520 — lower, 0.165
- NCI-H2126 — higher, 0.377
- EMC-BAC-2 — higher, 0.471
- NCI-H2085 — higher, 0.48
- HCC-366 — higher, 0.344
- NCI-H1666 — higher, 0.636
- LK-2 — higher, 0.887
- NCI-H2087 — lower, 0.293
- NCI-H2342 — higher, 0.512
- SK-MES-1 — lower, 0.308
- H3255 — lower, 0.297
- COR-L23 — lower, 0.226
- COR-L 105 — higher, 0.42
- LOU-NH91 — higher, 0.479
- ChaGo-K-1 — higher, 0.84
- NCI-H2170 — higher, 0.435
- NCI-H2405 — higher, 0.511
- HOP-62 — higher, 0.395
- HCC-44 — higher, 1.04
- SW 900 — higher, 0.444
- LU99A — higher, 0.423
- BEN — higher, 0.474
- HARA — lower, 0.209
- NCI-H1648 — lower, 0.317
- HCC-78 — higher, 0.43
- NCI-H322M — higher, 0.475
- LCLC-97TM1 — lower, 0.2
- NCI-H2009 — lower, 0.241
- A-427 — higher, 0.559
- NCI-H441 — lower, 0.207
- NCI-H661 — higher, 0.372
- NCI-H460 — lower, 0.139
- NCI-H2347 — higher, 0.435
- SK-LU-1 — higher, 0.39
- NCI-H1395 — higher, 0.509
- 201T — higher, 0.36
- NCI-H1915 — higher, 0.537
- HCC-827 — higher, 0.466
- LXF-289 — higher, 0.605
- NCI-H23 — higher, 0.55
- NCI-H647 — higher, 0.337
- CAL-12T — higher, 0.553
- NCI-H1651 — higher, 0.56
- EPLC-272H — lower, 0.259
- NCI-H2228 — higher, 0.467
- NCI-H1792 — higher, 0.701
- NCI-H1355 — higher, 0.382
- NCI-H3122 — lower, 0.219
- NCI-H1437 — higher, 0.359
- NCI-H1755 — higher, 0.422
- NCI-H2023 — lower, 0.262
- HCC-15 — higher, 0.683
- NCI-H1793 — lower, 0.315
- PC-14 — higher, 0.516
- EKVX — higher, 0.419

Compound: CCn1c(-c2nonc2N)nc2c(C#CC(C)(C)O)ncc(OC[C@H]3CCCNC3)c21 + O=C(c1cc(Cc2n[nH]c(=O)c3ccccc23)ccc1F)N1CCN(C(=O)C2CC2)CC1 [Olaparib] (partner 8 µM)
Assay: as above
Conditions: first compound 0.01 µM
Procedure, shortened: as §1

Point of comparison: Calu-6, relative viability 0.546. Against it:
- NCI-H522 — higher, 0.622
- NCI-H727 — higher, 0.801
- NCI-H1650 — higher, 0.782
- EBC-1 — higher, 0.652
- NCI-H1703 — lower, 0.406
- NCI-H1993 — higher, 1.14
- SW 1573 — higher, 0.553
- NCI-H838 — higher, 0.74
- LCLC-103H — higher, 0.705
- NCI-H520 — lower, 0.337
- NCI-H2126 — higher, 0.917
- EMC-BAC-2 — lower, 0.457
- NCI-H2085 — higher, 0.758
- HCC-366 — lower, 0.421
- NCI-H1666 — higher, 0.793
- NCI-H596 — higher, 0.682
